Source: patent publication US20040047845A1, “Methods and compositions for diagnosis and treatment of cancer based on the transcription factor ets2” (MUSC Foundation For Research Development, priority 1998, published 2004)

B1: DN-ETS2: dominant negative truncated human ETS2 protein, DNA binding domain (C-terminal amino acids 334-469), expressed from plasmid pDN-ETS2 (protein, UniProt P15036 334-469, looked up, fragment)
chain: YIQERSDPVEQGKPVIPAAVLAGFTGSGPIQLWQFLLELLSDKSCQSFISWTGDGWEFKLADPDEVARRWGKRKNKPKMNYEKLSRGLRYYYDKNIIHKTSGKRYVYRFVCDLQNLLGFTPEELHAILGVQPDTED

Experiments:
[1] = system: LNCaP human prostate cell line; test: Soft agar growth assay, LNCaP; type: cell-based; conditions: de novo expression of ETS2 in weakly tumorigenic LNCaP
Description: (§1) Transfection of LNCaP was performed in 35-mm wells using 2 μg of DNA and Superfact Reagent (Qiagen, Calif.). Selection for stable LNCaP transfectants was in 450 μg/ml G418. DU145 and PC3 cells were transfected using LipofectAmine ([…]/35 mm well, Life Technologies Inc., Bethesda, Md.). Stable DU145 and PC3 transfectants were expanded in the presence of 300 μg/ml G418.
(§2) Soft agar growth assays were performed in six-well plates (35-mm wells). Cells (20,000) were plated in 0.4% agar (Sigma) in RPMI 1640 supplemented with 10% FBS. An underlayer of 0.8% agar was used to prevent attachment of cells. Triplicate assays initiated with 20,000 cells were fed weekly by agar overlay and scored after 3 weeks. The soft agar assays were performed twice, independently.

[2] = system: DU145 cells; test: Soft agar growth assay (anchorage independent growth), DU145; type: cell-based, human; conditions: DN-ETS2 transfectants vs DU145 parental cell line, after three weeks
Description: as §1, §2

Molecule | ability to grow in soft agar [1] | anchorage-independent growth in soft agar [2]
ETS2: wild type human ETS2 transcription factor, expressed de novo in LNCaP from ETS2 cDNA in sense orientation | increases its ability to grow in soft agar | 
B1 |  | do not grow well in soft agar
